The values that follow are results of earlier work, collected in patent publication US7160886B2, “Acylated piperazine derivatives as melanocortin-4 receptor agonists” (Merck & Co., Inc., priority 2003, dated 2007).

The series concerns men with erectile dysfunction. To be noted: for duration of effect / onset of action: after an oral dose; for patients in whom effective / adequate response: oral.

As to `Cc1ccc(N(CC2=NCCN2)c2cccc(O)c2)cc1` [phentolamine], the duration of effect was 2 h, the onset of action is 5 to 30 min and the “patients in whom effective / adequate response” value is given as 35–40%.

`CCCc1nn(C)c2c(=O)[nH]c(-c3cc(S(=O)(=O)N4CCN(C)CC4)ccc3OCC)nc12` [sildenafil]: the duration of effect result is reported as “about 4 hours”, the onset of action is 30 to 60 min and the “patients in whom effective / adequate response” value is on record as “about 70%”.
